Test systems include HCT-116; MDA-MB-435; NCI-H23; UACC-62; Hs-578T; CAKI-1; NCI/ADR-RES; SW-620; SK-MEL-28; A549; OVCAR-5; NCI-H522; OVCAR-8; SNB-75; HOP-92; UACC-257; ACHN; SN12C; TK-10; MCF7.
What all share (test): DTP human tumour cell line panel, 48 h

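48-hour exposure; five concentrations; linearly interpolated endpoints. Here, GI50 denotes the concentration required for 50% inhibition of growth.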 Calls of active or inactive are those of the source. Cut-off read from the data, not from the text of the source: active = GI50 up to about 1.1 µM and inactive = higher. Where only a bound is given, the exact number is not on record here.

One may read the GI50 as the concentration at which growth is held to half of that of the control.

With `CCC[C@H](C)[C@H]1NC(=O)[C@@H](NC(=O)[C@@H](CC(C)C)N(C)C(=O)C2CCCN2C(=O)[C@H](C)O)[C@@H](C)OC(=O)[C@H](CC(C)C)N(C)C(=O)[C@@H]2CCCN2C(=O)[C@H](CC(C)C)NC(=O)[C@@H](C)C(=O)[C@H](C(C)C)OC(=O)C[C@@H]1O` (stereo not given in full), the 50% growth inhibitory concentration (GI50) with HCT-116 is < 2.5 nM (active); in the assay with MDA-MB-435 it was < 2.5 nM (active); in the assay with NCI-H23, < 2.5 nM (active); in the assay with UACC-62, < 2.5 nM (active); with Hs-578T it was < 2.5 nM (active); in the assay with CAKI-1, 16.2 nM (active). Besides, the GI50 in the assay with NCI/ADR-RES is 189 nM (active); with SW-620 it was < 2.5 nM (active); with SK-MEL-28 it was < 2.5 nM (active); in the assay on A549 it was < 2.5 nM (active); with OVCAR-5, < 2.5 nM (active); with NCI-H522, < 2.5 nM (active). Also, the GI50 with OVCAR-8, in the assay with SNB-75, in the assay with HOP-92, with UACC-257, with ACHN and in the assay with SN12C was < 2.5 nM (active) throughout. For the same molecule, the GI50 with TK-10 and in the assay with MCF7 was < 2.5 nM (active) each time.

`CN(C)CCn1c(=O)c2ccc(NCCCN(C)CCCNc3ccc4c(=O)n(CCN(C)C)c(=O)n5c6ccc(O)cc6c(=O)c3c45)c3c(=O)c4cc(O)ccc4n(c1=O)c23`: the GI50 is < 10 nM (active) in the assay on HCT-116; < 10 nM (active) with MDA-MB-435; < 10 nM (active) in the assay on NCI-H23; < 11.6 nM (active) with UACC-62; 23.4 nM (active) in the assay on Hs-578T; < 10 nM (active) in the assay with CAKI-1. Besides, the 50% growth inhibitory concentration (GI50) was 181 nM (active) with NCI/ADR-RES; < 10 nM (active) in the assay with SW-620; 84.1 nM (active) in the assay with SK-MEL-28; < 10 nM (active) in the assay on A549; 44.2 nM (active) with OVCAR-5; < 10 nM (active) in the assay on NCI-H522. Moreover, the GI50 was < 10 nM (active) with OVCAR-8; < 10 nM (active) with SNB-75; < 20.1 nM (active) in the assay on HOP-92; 181 nM (active) with UACC-257; < 10 nM (active) in the assay on ACHN; < 10 nM (active) with SN12C. For the same molecule, the GI50 was < 12.6 nM (active) in the assay on TK-10 and < 10 nM (active) with MCF7.

In the case of `COC(=O)c1c(C)cccc1C1CN=NC12Cc1cc(C)c(C)cc1C2=O` (stereo not given), the GI50 is 34800 nM (inactive) with HCT-116; 27900 nM (inactive) with MDA-MB-435; 29900 nM (inactive) in the assay with NCI-H23; 69500 nM (inactive) in the assay on UACC-62; 96400 nM (inactive) in the assay with Hs-578T; 73100 nM (inactive) in the assay with CAKI-1. The GI50 in the assay with NCI/ADR-RES is 27400 nM (inactive); with SW-620, 52600 nM (inactive); in the assay on SK-MEL-28, > 100000 nM (inactive); in the assay on A549 it was 27800 nM (inactive); with OVCAR-5, > 100000 nM (inactive); with NCI-H522, 19200 nM (inactive). Also, the GI50 in the assay on OVCAR-8 was 78700 nM (inactive); with SNB-75 it was 38100 nM (inactive); with HOP-92, 30400 nM (inactive); with UACC-257, 27200 nM (inactive); with ACHN, 57400 nM (inactive); in the assay on SN12C, 75300 nM (inactive). In addition, the GI50 is 51400 nM (inactive) in the assay on TK-10 and 33600 nM (inactive) with MCF7.
